Reference: ChEMBL document CHEMBL4393720, “Design, synthesis and biological evaluation of bromophenol-thiazolylhydrazone hybrids inhibiting the interaction of translation initiation factors eIF4E/eIF4G as multifunctional agents for cancer treatment” (Eur J Med Chem, 2019)
Activity calls are given as the source filed them. The calls are words filed in the database; no cut-off is given here.

Key:
[1] = Tmax in female Sprague-Dawley rat at 2 mg/kg, iv measured up to 24 hrs by LC/MS-MS analysis; type: ADME, organism-based; conditions: in vivo
[2] = system: A549; assay: Inhibition of colony formation in human A549 cells incubated for 10 days by crystal violet staining based assay; type: functional, cell-based
[3] = system: A549; assay: In vivo inhibition of eIF4E in human A549 cells xenografted in athymic nude mouse assessed as decrease in phosphorylation of eIF4E at 25 to 50 mg/kg, ip administered once daily for 21 days by Western blot analysis; type: functional, organism-based
[4] = system: A549; assay: Induction of autophagy in human A549 cells assessed as change in LC3 expression at 1 to 5 uM incubated for 48 hrs by Western blot analysis; type: functional, cell-based
[5] = AUC (0 to 24 hrs) in female Sprague-Dawley rat at 2 mg/kg, iv measured up to 24 hrs by LC/MS-MS analysis; type: ADME, organism-based; set-up: time < 24 hr, dose 2 mg/kg, route intravenous; conditions: in vivo
[6] = Inhibition of PI3K/Akt/mTOR signalling pathway in human A549 cells assessed as reduction in Akt phosphorylation at 1 to 5 uM incubated for 48 hrs by Western blot analysis; type: cell-based
[7] = system: A549; assay: Induction of autophagy in human A549 cells infected with Ad-mCherry-GFP-LC3B assessed as LC3 aggregate formation at 2.5 uM incubated for 48 hrs by fluorescence microscopy; type: functional, cell-based
[8] = Total plasma clearance in female Sprague-Dawley rat at 2 mg/kg, iv measured up to 24 hrs by LC/MS-MS analysis; type: ADME, organism-based
[9] = Half life in male Sprague-Dawley rat at 2 mg/kg, iv measured up to 24 hrs by LC/MS-MS analysis; type: ADME, organism-based; conditions: in vivo
[10] = Volume of distribution in Sprague-Dawley rat at 2 mg/kg, iv measured up to 24 hrs by LC/MS-MS analysis; type: ADME, organism-based; conditions: in vivo
[11] = Oral bioavailability in female Sprague-Dawley rat at 10 mg/kg measured up to 24 hrs by LC/MS-MS analysis; type: ADME, organism-based; conditions: in vivo

Q: With `Fc1ccc(/C=N/Nc2nc(-c3ccc(C(F)(F)F)cc3)cs2)cc1F` as the compound, how does the Tmax [1] read?
A: The Tmax was 2 h.

Q: What about the inhibition [2] of the same compound?
A: Its inhibition is “Dose-dependent effect”.

Q: What about the inhibition [3] of the same compound?
A: Its inhibition is “Active”.

Q: And the Activity [4]?
A: The Activity was “Active”.

Q: And the AUC(0-t) at 24 h [5]?
A: The AUC(0-t) at 24 h was 133 µM·h.

Q: What about the inhibition [6] of the same compound?
A: The inhibition was “Active”.

Q: What about the Activity [7] of the same compound?
A: Its Activity is “Active”.

Q: And the clearance [8]?
A: Its clearance is 0.667 mL/min/kg.

Q: And the half-life [9]?
A: The half-life was 2.83 h.

Q: And the Vd [10]?
A: Its Vd is 0.67 L/kg.

Q: And the bioavailability [11]?
A: Its bioavailability is 31%.
